Like-named read-outs stand apart in the source and are kept apart here.
Experiments:
Assay in all cases: Glasshouse assay for herbicidal activity (pre- and post-emergence), percentage phytotoxicity
Format in all cases: in vivo
[1] = tested on: Alopecurus myosuroides (ALOMY); conditions: Alopecurus myosuroides, rate 250 g/ha
In short: (§1)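 Pot-grown, standard soil. PRE: spray 1 d post-sowing; POST: ~12 d. Glasshouse 24/18 °C (warm spp.) / 20/16 °C (cool spp.), 16 h light, 65% RH, watered 2×/day. Visual % damage, 20 DAA PRE, 15 DAA POST.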

[2] = tested on: Avena fatua (AVEFA); conditions: Avena fatua, rate 250 g/ha
In short: as §1

[3] = tested on: Echinochloa crus-galli (ECHCG); conditions: Echinochloa crus-galli, rate 250 g/ha
In short: as §1

[4] = tested on: Lolium perenne (LOLPE); conditions: Lolium perenne, rate 250 g/ha
In short: as §1

[5] = post-emergence, 360 h, POST-emergence, visual score 15 DAA (100%=total damage, 0%=no damage), read-out: Post-emergence herbicidal activity (percentage phytotoxicity) ALOMY POST
[6] = pre-emergence, 480 h, PRE-emergence, visual score 20 DAA (100%=total damage, 0%=no damage), read-out: Pre-emergence herbicidal activity (percentage phytotoxicity) ALOMY PRE
[7] = post-emergence, 360 h, POST-emergence, visual score 15 DAA (100%=total damage, 0%=no damage), read-out: Post-emergence herbicidal activity (percentage phytotoxicity) AVEFA POST
[8] = pre-emergence, 480 h, PRE-emergence, visual score 20 DAA (100%=total damage, 0%=no damage), read-out: Pre-emergence herbicidal activity (percentage phytotoxicity) AVEFA PRE
[9] = post-emergence, 360 h, POST-emergence, visual score 15 DAA (100%=total damage, 0%=no damage), read-out: Post-emergence herbicidal activity (percentage phytotoxicity) ECHCG POST
[10] = pre-emergence, 480 h, PRE-emergence, visual score 20 DAA (100%=total damage, 0%=no damage), read-out: Pre-emergence herbicidal activity (percentage phytotoxicity) ECHCG PRE
[11] = post-emergence, 360 h, POST-emergence, visual score 15 DAA (100%=total damage, 0%=no damage), read-out: Post-emergence herbicidal activity (percentage phytotoxicity) LOLPE POST
[12] = pre-emergence, 480 h, PRE-emergence, visual score 20 DAA (100%=total damage, 0%=no damage), read-out: Pre-emergence herbicidal activity (percentage phytotoxicity) LOLPE PRE

SMILES	pest or weed control at 250 g/ha [1, 5] [%]	pest or weed control at 250 g/ha [1, 6] [%]	pest or weed control at 250 g/ha [2, 7] [%]	pest or weed control at 250 g/ha [2, 8] [%]	pest or weed control at 250 g/ha [3, 9] [%]	pest or weed control at 250 g/ha [3, 10] [%]	pest or weed control at 250 g/ha [4, 11] [%]	pest or weed control at 250 g/ha [4, 12] [%]
C/C=C/c1cc(C)c(C2C(=O)CC(CC(=O)NCC3CC3)C2=O)c(C)c1 (centres unmarked) [Compound B247]	100	90	100	80	100	60	100	80
C/C=C/c1cc(C)c(C2C(=O)CC(CC(=O)N(C)CC)C2=O)c(C)c1 (centres unmarked) [Compound B248]	100	50	100	50	100	60	100	80
C/C=C/c1cc(C)c(C2C(=O)CC(CC(=O)N(C)C(C)(C)C)C2=O)c(C)c1 (centres unmarked) [Compound B249]	70	80	70	30	80	80	60	70
C#CCN(C)C(=O)CC1CC(=O)C(c2c(C)cc(/C=C/C)cc2C)C1=O (centres unmarked) [Compound B250]	100	50	90	50	100	90	100	80
CCc1cc(C)cc(C)c1C1C(=O)CC(CC(=O)NCc2cccc(Cl)c2)C1=O (centres unmarked) [Compound B251]	100	90	90	60	100	90	100	90
CCc1cc(C)cc(C)c1C1C(=O)CC(CC(=O)NCc2cccc(F)c2)C1=O (centres unmarked) [Compound B252]	100	100	90	70	100	100	100	100
CCc1cc(C)cc(C)c1C1C(=O)CC(CC(=O)NCc2ccc(OC)cc2)C1=O (centres unmarked) [Compound B253]	100	100	100	80	100	90	100	90
CCc1cc(C)cc(C)c1C1C(=O)CC(CC(=O)NCc2ccc(C#N)cc2)C1=O (centres unmarked) [Compound B254]	100	90	100	90	100	100	100	90
CCc1cc(C)cc(C)c1C1C(=O)CC(CC(=O)NC(C)C)C1=O (centres unmarked) [Compound B255]	100	100	100	80	100	100	100	100
C=CCNC(=O)CC1CC(=O)C(c2c(C)cc(C)cc2CC)C1=O (centres unmarked) [Compound B256]	100	100	100	100	100	100	100	100
CCc1cc(C)cc(C)c1C1C(=O)CC(CC(=O)NCC2CC2)C1=O (centres unmarked) [Compound B257]	100	100	100	90	100	100	100	100
CCc1cc(C)cc(C)c1C1C(=O)CC(CC(=O)N(C)CC)C1=O (centres unmarked) [Compound B258]	100	100	100	90	100	100	100	100
CCc1cc(C)cc(C)c1C1C(=O)CC(CC(=O)N(C)C(C)(C)C)C1=O (centres unmarked) [Compound B259]	100	100	100	90	100	100	100	100
C#CCN(C)C(=O)CC1CC(=O)C(c2c(C)cc(C)cc2CC)C1=O (centres unmarked) [Compound B260]	100	90	100	80	100	100	100	100
CCc1cc(OCC(F)(F)F)cc(C)c1C1C(=O)CC(CC(=O)NCc2cccc(Cl)c2)C1=O (centres unmarked) [Compound B261]	100	80	100	80	100	90	100	90
Cc1cc(-n2cc(Cl)cn2)cc(C)c1C1C(=O)CC(CC(=O)NCc2cccc(Cl)c2)C1=O (centres unmarked) [Compound B262]	70	60	90	40	100	80	70	60
Cc1cc(-c2ncc(F)cn2)cc(C)c1C1C(=O)CC(CC(=O)NCc2ccccc2)C1=O (centres unmarked) [Compound B263]	100	90	100	80	100	100	100	80
Cc1cc(-c2ncc(F)cn2)cc(C)c1C1C(=O)CC(CC(=O)NCc2cccc(F)c2)C1=O (centres unmarked) [Compound B264]	100	100	100	80	100	100	100	90
Cc1cc(-c2ncc(F)cc2F)cc(C)c1C1C(=O)CC(CC(=O)N(C)C)C1=O (centres unmarked) [Compound B265]	100	100	100	100	100	100	100	100

Source: US10206394B2, “Herbicidal compounds” (Syngenta Participations AG, priority 2014, dated 2019)
